Laboratory results from patent US8722729B2, “Unsaturated fatty acid monoesters and diesters on ascorbic acid and cosmetic uses thereof” (Pierre Fabre Dermo-Cosmetique, priority 2009, dated 2014).
“Also recorded” adds a separate entry of the source.

Tests used:
[1] = molecular target: T1, hyaluronidase of bovine origin (BTH, Bovine Testis hyaluronidase) (Bos taurus, UniProt Q2YDK3); experiment: Assay of hyaluronidase activity (residual HA, HA-ELISA); type: biochemical
T1 sequence (Q2YDK3 1-553): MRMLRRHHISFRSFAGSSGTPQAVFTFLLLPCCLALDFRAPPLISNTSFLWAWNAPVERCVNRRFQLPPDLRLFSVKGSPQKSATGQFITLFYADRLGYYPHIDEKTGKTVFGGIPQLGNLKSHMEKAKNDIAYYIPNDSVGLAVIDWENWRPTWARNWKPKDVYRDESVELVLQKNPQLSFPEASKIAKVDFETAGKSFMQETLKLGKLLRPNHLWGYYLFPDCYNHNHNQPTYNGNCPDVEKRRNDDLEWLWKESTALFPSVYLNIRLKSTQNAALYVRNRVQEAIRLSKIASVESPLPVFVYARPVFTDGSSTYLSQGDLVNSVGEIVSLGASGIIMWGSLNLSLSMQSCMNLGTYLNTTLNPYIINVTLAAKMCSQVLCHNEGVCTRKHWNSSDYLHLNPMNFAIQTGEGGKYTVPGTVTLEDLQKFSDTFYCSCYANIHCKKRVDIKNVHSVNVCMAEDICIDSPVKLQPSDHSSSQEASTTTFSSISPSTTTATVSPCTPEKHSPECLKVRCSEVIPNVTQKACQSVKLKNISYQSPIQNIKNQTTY
Experimental: Hyaluronidase activity is measured by the assay of residual hyaluronic acid (HA). The substrate is fixed to a carrier then placed in the presence of an enzyme and a quantity of compound to be tested. The residual HA i.e. the non-hydrolyzed HA is assayed using a HA-Elisa detection system: Hyaluronan enzyme-linked immunosorbent assay (Echelon Biosciences®).
0.5 units of hyaluronidase of bovine origin (BTH, Bovine Testis hyaluronidase) were pre-incubated at 37° C. with the compound to be tested. This mixture was deposited on the HA fixed to the surface of a microplate well. The enzymatic reaction took place at pH 7.2n at 37° C. Washing was followed by a recognition step of residual HA by hyaluronectin (NH). The quantity of bonded NH was measured by ELISA using an anti-NH antibody conjugated with alkaline phosphatase. The p-nitrophenyl phosphate disodium salt (pnNpp) substrate of the phosphatase allows spectrometric detection at 405 nm. (Delpech B et al., Analytical Biochemistry 149, 555(565 (1985); Robert Stern et al. Analytical Biochemistry 251, 263-269 (1997)). OD intensity was correlated with the quantity of residual HA. The quantity of residual HA is directly linked to enzymatic activity. In the presence of an inhibitor, the larger the quantity of residual HA the more the sample is inhibiting. A percentage inhibition of hyaluronidase will be expressed.
Therefore the net enzymatic activities were calculated which represent the difference in mean gross activity without enzyme and the gross activity of the enzyme with or without the compound to be tested.
The percentage enzymatic inhibition related to the compound to be tested was calculated as follows: % inhibition=(Maximum net enzymatic activity)−Net enzymatic activity in the presence of the compound to be tested)/Maximum net enzymatic activity.
where the maximum net enzymatic activity represents the mean net enzymatic activity of 0.5 U.

[2] = system: Human dermal papilla cells; experiment: In vitro stimulation of the proliferation of dermal papilla cells (BrdU incorporation); type: cell-based; conditions: 12.5 μM; 60 h; best activity
Experimental: Human dermal papilla cells (Promocell) were placed in culture and held in early passage culture in DMEM medium supplemented with 10% FCS. They were then seeded in a 96-well plate in DMEM medium supplemented with 10% FCS for 12 h. The culture medium was replaced by serum-free DMEM medium then by DMEM supplemented with 1% FCS and molecules 1, 2, 3 and 4 at the different tested concentrations After incubation for 60 h, cell proliferation was evaluated by incorporation of BrdU.
The diagrams in appended FIG. 1 show the increase in BrdU incorporation and the stimulated cellular proliferation of the cells in the presence of the different molecules (as a percent of the control).

[3] = 0.5 U BTH, read-out: Enzymatic inhibition (mean as a percentage)

Compound	Effect on hyaluronidase [1]	inhibition at 5 µM ([1]; 5 μM, 0.5 U BTH, read-out: Enzymatic inhibition (mean as a percentage))	inhibition at 10 µM ([1]; 10 μM, 0.5 U BTH, read-out: Enzymatic inhibition (mean as a percentage))	inhibition at 20 µM ([1]; 20 μM, 0.5 U BTH, read-out: Enzymatic inhibition (mean as a percentage))	inhibition at 25 µM ([1]; 25 μM, 0.5 U BTH, read-out: Enzymatic inhibition (mean as a percentage))	inhibition at 30 µM ([1]; 30 μM, 0.5 U BTH, read-out: Enzymatic inhibition (mean as a percentage))	inhibition at 40 µM ([1]; 40 μM, 0.5 U BTH, read-out: Enzymatic inhibition (mean as a percentage))	inhibition at 50 µM ([1]; 50 μM, 0.5 U BTH, read-out: Enzymatic inhibition (mean as a percentage))	inhibition at 100 µM [1, 3]	inhibition at 250 µM ([1]; 250 μM, 0.5 U BTH, read-out: Enzymatic inhibition (mean as a percentage))	inhibition at 500 µM [1, 3]	IC50 ([1]; in the region of)	Proliferation of the cells of the dermal papilla (percent of the control) [2]
CCCCC/C=C\C/C=C\CCCCCCCC(=O)OC1=C(OC(=O)CCCCCCC/C=C\C/C=C\CCCCC)C(C2COC(C)(C)O2)OC1=O (stereo not shown) [Molecule 1, diactodeca-9,12-dienoate of (9Z,9′Z,12Z,12′Z)-2-(2,2-dimethyl-1,3-dioxolan-4-yl)-5-oxo-2,5-dihydrofuran-3,4-diyl]	strongly inhibit hyaluronidase; also recorded: equivalent to or more active than ascorbyl palmitate	14%	21%	44%	46%	66%	86%	76%	113%	119%	122%	25 to 30 µM	169%
O=C1O[C@H]([C@@H](O)CO)C(O)=C1O [Ascorbic acid, ascorbic acid]	no effect								1%		4%		
